These results are taken from US20050261292A1, “Pharmaceutical composition containing N-sulfamoyl-N'-arylpiperazines for the treatment or inhibition of obesity and related conditions” (Solvay Pharmaceuticals GmbH, priority 2004, published 2005).

Counter-ions that a name gives are not always drawn.

The subject of one experiment is male fatty Zucker rats. As to the kind of experiment: In vivo oral glucose tolerance test in the rat. The following applies: 100 mg/kg/day oral gavage. Here is the method: 2. In vivo Oral Glucose Tolerance Test in the Rat
The studies were carried out in individually housed male fatty Zucker rats (n=10 per group) weighing ca. 250-500 g. The rats were kept on a normal 12/12 h light/dark cycle (lights on 07.00) and they were allowed food (lab chow) and water ad libitum except for during experiments, when they were fasted overnight before the glucose challenge.
The test substances of Formula I were suspended in 2% polyethylenglycol (=PEG) 1% carboxymethylcellulose and administered by oral gavage at a dose of 100 mg/kg/day; ⅓ of the dose (1 ml/kg, 33 mg/ml) was administered at 08.30-09.30 h; the remaining […] (2 ml/kg; 33 mg/ml) was administered between 16.00-17.00 h and the last ⅓ dose was given the following morning. Control animals received only the vehicle. On the day of the test, 45 min after the final dose of test substance/vehicle a blood sample (0 min) was taken (tail vein) immediately after which the rats received an oral glucose challenge (1.25 g/kg; 118 mg/ml). Further blood samples were taken at 30, 60, 90, 120 min after the glucose challenge. The second drop of blood of each sample was placed on a glucose test strip before this was placed in the glucose meter for determination of blood glucose level (Life Scan One Touch Ultra Blood® Glucose Meter and Life Scan One Touch Ultra® Test Strips; Life Scan Inc.; Milpitas, Calif. 95035). The remaining blood of each sample was spun and the plasma was frozen at −80° C. before analysis for insulin (1-2-3 Rat Insulin ELISA kit, Alpco Diagnostics).
The values obtained were plotted and the AUC for test compounds and vehicle (for glucose and insulin) were determined after which the percent control AUC, percent control maximum value and % control baseline were estimated, to determine the influence of the test compound on the glucose tolerance.

The target in experiment [1] is T1, human carbonic anhydrase isoenzyme II (hCA II) (Homo sapiens, UniProt P00918).
T1 construct: human carbonic anhydrase isoenzyme II from erythrocytes (Sigma-Aldrich); purchased Sigma-Aldrich; host or cells: human erythrocytes (natural source)
Description: In vitro inhibition of human carbonic anhydrase isoenzyme II (hCA II), dansylamide fluorescence. The following applies: hCA II from erythrocytes 10^-7 M, 60 min, single measurements, read-out: hCA II inhibiting effect in vitro, IC50. Format: biochemical. Here is the method: 1. In vitro Inhibition of Human Carbonic Anhydrase Isoenzyme II (hCA II)
The test compounds of Formula I in 96 well microplates were diluted with aqua bidest by using an automatic pipettor (CyBiWell®). From the different dilution plates, aliquots of 20 μl were transferred to the 96 well black assay plates with a pipetting station (Tecan Genesis®). In a second step, 148 μl of potassium phosphate buffer (20 mM, pH 7.4) was added, and as a third step, 20 μl of enzyme solution (1 μM human carbonic anhydrase isoenzyme II from erythrocytes (Sigma-Aldrich), dissolved in potassium phosphate buffer) incubated for 60 min at room temperature and the fluorescence signal (Tecan Ultra® fluorescence reader; excitation wavelength: 280 nm; emission wavelength: 465 nm) read at the end of the preincubation period (FLU-1). After the preincubation time, 20 μl of aqueous dansylamide solution (1 mM dansylamide (Sigma-Aldrich), dissolved in hydrochloric acid) were added and the fluorescence signal read every 10 min for a period of 60 min at 37° C. For calculation, the fluorescence data of the time point 60 min (FLU-2) were used. The total volume of assay mixture amounted to 208 μl. The final concentration of carbonic anhydrase II was 10^−7 M/L, of dansylamide 2.25×10^−6 and of compounds from 10^−8 M/L up to 10^−5 M/L. Final concentration of DMSO as compound solvent was […]. Each microplate also contained blanks without compound and enzyme, controls without compound and ethoxzolamide (final concentration 5×10^−8 M/L). All data reflect single measurements. Data were expressed as % inhibition after calculation by the formula: % inhibition=100((1−(FLU−2cpd−FLU−2blank−FLU−1cpd+FLU−1blank)/(FLU−2control−FLU−2blank−FLU−1control−FLU−1blank))
The % inhibition data for each compound and the respective final concentrations were used for IC50 calculations by using the Prism 4 software. Concentration action figures were calculated by applying the Prism algorithm for nonlinear regression (curve-fit): sigmoidal dose response with variable slope and the constraints: top: 100 and bottom 0.

The next experiment deals with male C57Bl/6 mice. As to the kind of experiment: Acute in vivo food intake test in mice. The following applies: high caloric diet, 100 mg/kg/day oral gavage in two halves. The protocol:
3. Acute in vivo Food Intake Test in Mice
The studies were carried out in individually housed male C57Bl/6 mice (n=8 per group). The mice were kept on an inverted 12/12 h light/dark cycle (lights on 22:00). They were allowed food (high caloric diet) and water ad libitum. Food intake and water consumption was measured daily. The test compound of Formula I was suspended in 1% methylcellulose in water and 2% (v/v) of Poloxamer 188 (Lutrol F68®) and administered by oral gavage at a dose of 100 mg/kg/day.
In the test model described above, the test substances caused a decrease of the animals' 24 h food intake to the percentages of food intake when compared to control as given in table 3 below.

For orientation: IC50 means the midpoint of a concentration-inhibition curve. As for `NS(=O)(=O)N1CCN(c2ccccc2)CC1` [Example 2, N-Sulfamoyl-N′-phenylpiperazine hydrochloride], the “Glucose Baseline” value in the experiment with male fatty Zucker rats (0 min sample before glucose challenge) is given as 82 % of control. The “Insulin Baseline” value with male fatty Zucker rats (0 min sample before glucose challenge, plasma) was 85 % of control. In addition, the “Glucose Maximal effect” value in the experiment on male fatty Zucker rats (oral glucose challenge 1.25 g/kg) is recorded as 78 % of control. In addition, the “Glucose AUC” value with male fatty Zucker rats (oral glucose challenge 1.25 g/kg, 0-120 min) is given as 84 % of control. The “Insulin AUC” value in the experiment with male fatty Zucker rats (oral glucose challenge 1.25 g/kg, 0-120 min, plasma) was 95 % of control. In addition, in the experiment on male fatty Zucker rats (oral glucose challenge 1.25 g/kg, plasma), the “Insulin Maximal effect” value is given as 95 % of control. The IC50 in experiment [1] was determined as 5.1 µM. Further, the “24 h food intake” value in the experiment with male C57Bl/6 mice was 68 % of control.
